The values that follow come from patent US20240254082A1, “Substituted Isoindoline-1, 3-diketone PDE4 Inhibitor and Pharmaceutical Application Thereof” (SUZHOU INTRAGRAND PHARMA CO., LTD, priority 2021, published 2024).

pIC50: −log10 of the molar value. Where two headings read alike, the source gives them in different places.

The target of one assay is PDE7A (Homo sapiens, UniProt Q13946). The experiment in a line: Selective inhibitory activity assay, PDE7A. In kind it is biochemical. Particulars: read-out: Inhibition rate (%) of PDE7A. The protocol: (§1) 7. Selective inhibitory activity assay for PDE1, 2, 3, 5, 7, 10 and 11 enzymes
Chain of PDE7A (Q13946 whole entry, species assumed): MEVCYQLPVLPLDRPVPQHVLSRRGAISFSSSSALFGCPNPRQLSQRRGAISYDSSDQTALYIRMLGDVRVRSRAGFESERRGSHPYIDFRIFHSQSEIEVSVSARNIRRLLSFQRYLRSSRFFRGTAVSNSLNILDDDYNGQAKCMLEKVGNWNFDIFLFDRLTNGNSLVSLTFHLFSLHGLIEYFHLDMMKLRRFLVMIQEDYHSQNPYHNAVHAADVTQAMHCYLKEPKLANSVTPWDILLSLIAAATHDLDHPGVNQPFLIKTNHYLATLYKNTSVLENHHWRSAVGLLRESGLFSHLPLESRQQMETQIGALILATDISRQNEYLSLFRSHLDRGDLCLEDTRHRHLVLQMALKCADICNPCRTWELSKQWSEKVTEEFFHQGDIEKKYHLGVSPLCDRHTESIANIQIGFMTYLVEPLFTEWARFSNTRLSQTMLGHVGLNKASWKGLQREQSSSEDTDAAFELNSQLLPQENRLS
(§2) The selective specificity of compounds for PDE4 was assessed by assaying single concentrations of the compounds. For example, PDE1a enzyme, PDElc enzyme, PDE2a enzyme, PDE3a enzyme, PDE3b enzyme, PDE5a1 enzyme, PDE7a enzyme, PDE7b enzyme, PDE10a1 enzyme and PDE11a4 enzyme were tested. The selective inhibitory effects of different compounds on the enzymatic activities of PDEIC, PDE2A, PDE3B, PDE5A1, PDE7A, and PDE10A1 at concentrations of 10 μM and 1 μM, respectively, are shown in the table below: […]

In another assay the target is PDE10A1 (Homo sapiens, UniProt Q9Y233). In words: Selective inhibitory activity assay, PDE10A1. In kind it is biochemical. Particulars: read-out: Inhibition rate (%) of PDE10A1. The protocol: as §1, §2
Another assay has as its target PDE1C (Homo sapiens, UniProt Q14123). In words: Selective inhibitory activity assay, PDE1C. The settings on record: read-out: Inhibition rate (%) of PDE1C. In kind it is biochemical. As for the experimental part:
as §1, §2

The next assay deals with PDE3B (Homo sapiens, UniProt Q13370). In words: Selective inhibitory activity assay, PDE3B. The settings on record: read-out: Inhibition rate (%) of PDE3B. In kind it is biochemical. The protocol: as §1, §2
Chain of PDE3B (Q13370 whole entry, species assumed): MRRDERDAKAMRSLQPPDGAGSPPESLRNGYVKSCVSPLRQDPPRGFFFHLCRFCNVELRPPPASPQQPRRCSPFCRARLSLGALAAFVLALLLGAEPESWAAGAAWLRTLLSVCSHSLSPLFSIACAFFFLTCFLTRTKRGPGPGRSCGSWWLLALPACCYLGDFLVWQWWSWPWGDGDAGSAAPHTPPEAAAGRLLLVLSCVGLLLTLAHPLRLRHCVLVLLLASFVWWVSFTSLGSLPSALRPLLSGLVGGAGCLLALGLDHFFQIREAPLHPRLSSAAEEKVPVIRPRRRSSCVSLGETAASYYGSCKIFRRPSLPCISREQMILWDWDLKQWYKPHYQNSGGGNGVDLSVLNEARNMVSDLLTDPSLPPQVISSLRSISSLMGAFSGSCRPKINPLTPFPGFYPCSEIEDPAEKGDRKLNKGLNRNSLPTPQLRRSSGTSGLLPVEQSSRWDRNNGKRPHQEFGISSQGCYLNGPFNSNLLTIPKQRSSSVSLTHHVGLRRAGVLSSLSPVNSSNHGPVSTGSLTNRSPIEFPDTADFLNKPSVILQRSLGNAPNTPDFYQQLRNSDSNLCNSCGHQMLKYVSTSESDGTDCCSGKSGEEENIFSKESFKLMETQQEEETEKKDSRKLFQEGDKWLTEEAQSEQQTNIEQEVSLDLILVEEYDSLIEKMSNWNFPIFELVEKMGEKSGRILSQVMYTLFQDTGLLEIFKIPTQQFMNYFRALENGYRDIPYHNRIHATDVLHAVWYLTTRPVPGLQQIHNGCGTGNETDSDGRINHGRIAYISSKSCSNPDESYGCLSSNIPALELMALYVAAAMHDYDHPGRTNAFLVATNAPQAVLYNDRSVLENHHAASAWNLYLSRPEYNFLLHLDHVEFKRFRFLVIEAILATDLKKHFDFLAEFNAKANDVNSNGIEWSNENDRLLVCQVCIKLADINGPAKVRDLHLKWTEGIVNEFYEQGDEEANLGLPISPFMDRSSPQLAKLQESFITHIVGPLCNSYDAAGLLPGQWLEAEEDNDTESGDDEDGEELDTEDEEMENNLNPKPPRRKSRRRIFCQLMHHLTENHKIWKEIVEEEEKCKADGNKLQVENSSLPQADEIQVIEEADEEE
The target in a further assay is T1, PDE4A1 (Homo sapiens, UniProt P27815).
T1 construct: purchased BPS 60340
T1 sequence (P27815 1-647 isoform P27815-4): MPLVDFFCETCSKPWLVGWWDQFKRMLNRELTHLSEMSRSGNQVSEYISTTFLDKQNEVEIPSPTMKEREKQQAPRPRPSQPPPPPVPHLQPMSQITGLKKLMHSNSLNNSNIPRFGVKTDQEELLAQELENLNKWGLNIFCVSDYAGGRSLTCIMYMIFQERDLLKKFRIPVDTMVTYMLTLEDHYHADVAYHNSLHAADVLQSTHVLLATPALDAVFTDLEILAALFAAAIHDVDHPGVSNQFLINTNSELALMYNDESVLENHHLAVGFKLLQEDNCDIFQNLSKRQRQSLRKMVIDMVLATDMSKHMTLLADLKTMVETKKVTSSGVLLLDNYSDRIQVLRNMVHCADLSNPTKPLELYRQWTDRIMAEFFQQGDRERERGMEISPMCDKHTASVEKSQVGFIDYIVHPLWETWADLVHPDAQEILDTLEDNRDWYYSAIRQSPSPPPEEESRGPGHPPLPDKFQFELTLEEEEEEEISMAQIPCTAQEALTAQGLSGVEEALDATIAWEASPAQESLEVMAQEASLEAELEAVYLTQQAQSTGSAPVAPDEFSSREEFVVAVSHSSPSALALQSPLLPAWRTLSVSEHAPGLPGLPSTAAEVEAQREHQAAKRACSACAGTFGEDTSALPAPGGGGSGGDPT
In words: Inhibition assay of PDE4A1 enzyme (FP kit). In kind it is biochemical. The protocol: 3. Inhibition assay of PDE4A1 enzyme:
(§3) Materials and Instruments:
(§4) FAM substrate: 25 μL of a FAM substrate stock solution was added into 2500 μL of PDE assay buffer. 25 μL of the diluted substrate was added to each reaction well.
(§5) 5 μL of the compound stock solution was added to 45 μL of DMSO to prepare a 1 mM diluent. 5 μL of the 1 mM diluent was added to 45 μL of PDE assay buffer to prepare a gradient dilution starting point. Then, according to the method of adding 5 μL of the previous concentration solution to 15 μL of PDE assay buffer, gradient dilution was carried out for 9 times to prepare compound working solutions with 10 concentrations. The working solutions were added to compound wells at 5 μL/well.
PDE4A1: First, a PDE4A1 stock solution was diluted by 100 times to a concentration of 4.9 ng/μL, 1.8 μL of the diluent was added to 2200 μL of PDE assay buffer, and the mixture was added to all compound wells and positive control wells at 20 μL/well. 20 μL of PDE assay buffer was added to substrate control wells.
Binding solution: 95 μL of binding buffer was added into 9.5 mL of binder diluent, and then mixed well. The obtained mixture was added to all wells at 100 μL/well.
(§6) FPsub=Substrate control FP.

In a further assay the target is PDE4D3 (Homo sapiens, UniProt Q08499). The experiment in a line: Inhibition assay of PDE4D3 enzyme (TR-FRET kit). In kind it is biochemical. As for the experimental part:
2. Inhibition assay of PDE4D3 enzyme:
as §3
FAM substrate: A stock solution of 20 μM FAM substrate was diluted to 200 nM with PDE assay buffer. 12.5 μL of the diluted substrate was added to each reaction well.
(§7) 5 μL of the compound stock solution was added to 45 μL of DMSO to prepare a 1 mM diluent. 5 μL of the 1 mM diluent was added to 45 μL of PDE assay buffer to prepare a gradient dilution starting point. Then, according to the method of adding 5 μL of the previous concentration solution to 15 μL of PDE assay buffer, gradient dilution was carried out for 9 times to prepare compound working solutions with 10 concentrations. The working solutions were added to compound wells at 2.5 μL/well.
PDE4D3: 0.054 μL of a PDE4D3 recombinase stock solution was added to 1500 μL of PDE buffer, and the mixture was added to all compound wells and positive control wells at 10 μL/well. 10 μL of PDE assay buffer was added to substrate control wells.
Binding solution: 3750 μL of binding buffer A and 3750 μL of binding buffer B were mixed well. Then, 150 μL of a binder was added into the mixture and mixed well. 7.5 μL of a Tb donor was added and mixed well. The obtained mixture was added to all wells at 50 μL/well.
S520=Read value of sample 520 nm
S490=Read value of sample 490 nm
Tb520=Read value of Tb only 520 nm
Tb490=Read value of Tb only 490 nm
FRETp=Positive control FRET
FRETsub=Substrate control FRET.

In another assay the target is T2, PDE4C1 (Homo sapiens, UniProt Q08493).
T2 construct: purchased BPS 60384
T2 sequence (Q08493 whole entry): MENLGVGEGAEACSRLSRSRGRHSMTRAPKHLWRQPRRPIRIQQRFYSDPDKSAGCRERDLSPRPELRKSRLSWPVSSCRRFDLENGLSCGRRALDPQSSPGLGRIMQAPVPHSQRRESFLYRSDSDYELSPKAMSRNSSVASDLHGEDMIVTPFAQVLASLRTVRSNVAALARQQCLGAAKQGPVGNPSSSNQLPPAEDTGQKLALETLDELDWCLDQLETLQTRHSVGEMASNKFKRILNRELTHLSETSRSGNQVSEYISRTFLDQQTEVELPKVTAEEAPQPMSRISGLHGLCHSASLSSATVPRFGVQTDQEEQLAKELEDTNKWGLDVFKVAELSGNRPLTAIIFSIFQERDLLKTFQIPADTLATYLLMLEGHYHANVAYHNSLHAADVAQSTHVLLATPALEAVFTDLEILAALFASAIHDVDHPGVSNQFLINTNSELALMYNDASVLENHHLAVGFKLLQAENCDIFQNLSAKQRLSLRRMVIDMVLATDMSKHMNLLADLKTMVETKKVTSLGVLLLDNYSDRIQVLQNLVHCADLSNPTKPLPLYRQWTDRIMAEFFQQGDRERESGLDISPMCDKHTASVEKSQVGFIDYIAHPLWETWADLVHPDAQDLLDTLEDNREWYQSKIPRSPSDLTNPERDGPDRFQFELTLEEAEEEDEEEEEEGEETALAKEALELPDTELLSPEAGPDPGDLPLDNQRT
The experiment in a line: Inhibition assay of PDE4C1 enzyme (FP kit). In kind it is biochemical. As for the experimental part: 5. Inhibition assay of PDE4C1 enzyme:
as §3
FAM substrate: 12.5 μL of a FAM substrate stock solution was added into 1250 μL of PDE assay buffer. 12.5 μL of the diluted substrate was added to each reaction well.
as §7
PDE4C1: First, a PDE4C1 stock solution was diluted by 100 times to a concentration of 3.2 ng/μL, 13.75 μL of the diluent was added to 1100 μL of PDE assay buffer, and the mixture was added to all compound wells and positive control wells at 10 μL/well. 10 μL of PDE assay buffer was added to substrate control wells.
Binding solution: 50 μL of binder was added into 5 mL of binder diluent, and then mixed well. The obtained mixture was added to all wells at 50 μL/well.
as §6

Another assay concerns the target PDE2A (Homo sapiens, UniProt O00408). The experiment in a line: Selective inhibitory activity assay, PDE2A. Particulars: read-out: Inhibition rate (%) of PDE2A. In kind it is biochemical. As for the experimental part: as §1, §2
The target in a further assay is PDE5A1 (Homo sapiens, UniProt O76074). The experiment in a line: Selective inhibitory activity assay, PDE5A1. In kind it is biochemical. The settings on record: read-out: Inhibition rate (%) of PDE5A1. As for the experimental part: as §1, §2
In the next assay the target is T3, PDE4B2 (Homo sapiens, UniProt Q07343).
T3 construct: purchased BPS 60343
T3 sequence (Q07343 1-564 isoform Q07343-2): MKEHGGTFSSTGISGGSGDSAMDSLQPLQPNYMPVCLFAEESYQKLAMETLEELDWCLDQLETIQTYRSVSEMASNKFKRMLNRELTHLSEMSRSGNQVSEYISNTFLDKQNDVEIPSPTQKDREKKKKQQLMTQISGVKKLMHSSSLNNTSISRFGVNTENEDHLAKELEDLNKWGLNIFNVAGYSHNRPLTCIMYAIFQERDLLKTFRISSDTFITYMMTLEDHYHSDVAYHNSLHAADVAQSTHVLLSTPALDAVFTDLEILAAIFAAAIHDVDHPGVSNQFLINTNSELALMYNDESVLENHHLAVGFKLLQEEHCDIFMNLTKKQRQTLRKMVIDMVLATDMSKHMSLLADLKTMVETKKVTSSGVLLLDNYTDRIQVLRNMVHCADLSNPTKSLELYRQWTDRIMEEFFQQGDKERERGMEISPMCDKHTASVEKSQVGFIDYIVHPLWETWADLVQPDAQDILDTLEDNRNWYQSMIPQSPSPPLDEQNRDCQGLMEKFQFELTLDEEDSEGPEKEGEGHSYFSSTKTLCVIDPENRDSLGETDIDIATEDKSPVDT
The experiment in a line: Inhibition assay of PDE4B2 enzyme (FP kit). In kind it is biochemical. As for the experimental part:
4. Inhibition assay of PDE4B2 enzyme:
as §3, §4, §5
PDE4B2: First, a PDE4B2 stock solution was diluted by 100 times to a concentration of 5.2 ng/μL, 3.2 μL of the diluent was added to 2200 μL of PDE assay buffer, and the mixture was added to all compound wells and positive control wells at 20 μL/well. 20 μL of PDE assay buffer was added to substrate control wells.
Binding solution: 95 μL of binder was added into 9.5 mL of binder diluent, and then mixed well. The obtained mixture was added to all wells at 100 μL/well.
as §6

For the next assay, the system named is TNF-α. The experiment in a line: Inhibition of TNF-α induced in human peripheral blood mononuclear cells. The settings on record: read-out: IC50 (nM), cytokine TNF-α. In kind it is cell-based.
The subject of another assay is IL-2. The experiment in a line: Inhibition of IL-2 induced in human peripheral blood mononuclear cells. In kind it is cell-based. Particulars: human PBMC, stimulus SEB; read-out: IC50 (nM), cytokine IL-2. The protocol:
8. Inhibitory assay of inflammatory factors TNF-α, IL-2, INF-γ
Determination of TNF-α, IL-2 and INF-γ induced by LPS/SEB in human peripheral blood mononuclear cells:
1. The purchased PBMC frozen cells were thawed at 37° C., transferred to RMPI1640 medium, and incubated overnight at 37° C. in an incubator containing 5% of CO2.
2. The next day, the cells were planked at 2×10^5 cells/well, with 100 μL per well.
4. LPS stimulus was added to each well at a final concentration of 10 ng/ml.
5. Incubation was carried out overnight at […] in an incubator containing 5% of CO2.
6. On the third day, the cell culture supernatant was collected, and cytokine assay was performed using an MSD method.

In a further assay the test system is INF-γ. The experiment in a line: Inhibition of INF-γ induced in human peripheral blood mononuclear cells. In kind it is cell-based.
Setting [1] is: Homo sapiens, PBMC, read-out: IC50 (nM), cytokine INF-r, human PBMC, stimulus SEB.
Setting [2] is: human PBMC, stimulus LPS, read-out: IC50 (nM), cytokine INF-r.

Chain of PDE4D3 (Q08499 1-673 isoform Q08499-2): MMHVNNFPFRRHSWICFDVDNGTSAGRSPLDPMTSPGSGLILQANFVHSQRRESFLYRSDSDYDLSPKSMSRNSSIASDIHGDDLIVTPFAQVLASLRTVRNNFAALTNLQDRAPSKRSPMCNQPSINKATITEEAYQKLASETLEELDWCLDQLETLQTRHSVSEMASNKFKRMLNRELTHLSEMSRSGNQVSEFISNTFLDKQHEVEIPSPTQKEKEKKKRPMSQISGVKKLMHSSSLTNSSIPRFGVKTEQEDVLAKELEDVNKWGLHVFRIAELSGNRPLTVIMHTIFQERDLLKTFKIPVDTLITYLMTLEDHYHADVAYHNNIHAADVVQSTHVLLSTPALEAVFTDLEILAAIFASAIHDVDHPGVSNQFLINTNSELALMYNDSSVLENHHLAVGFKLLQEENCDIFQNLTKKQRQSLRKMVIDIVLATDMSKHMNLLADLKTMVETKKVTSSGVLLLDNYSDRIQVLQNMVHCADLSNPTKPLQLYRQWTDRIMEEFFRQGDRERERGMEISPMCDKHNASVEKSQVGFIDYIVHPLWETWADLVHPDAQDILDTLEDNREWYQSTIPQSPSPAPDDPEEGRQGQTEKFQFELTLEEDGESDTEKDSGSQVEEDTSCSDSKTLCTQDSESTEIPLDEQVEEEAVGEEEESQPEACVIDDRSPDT
Chain of PDE1C (Q14123 whole entry, species assumed): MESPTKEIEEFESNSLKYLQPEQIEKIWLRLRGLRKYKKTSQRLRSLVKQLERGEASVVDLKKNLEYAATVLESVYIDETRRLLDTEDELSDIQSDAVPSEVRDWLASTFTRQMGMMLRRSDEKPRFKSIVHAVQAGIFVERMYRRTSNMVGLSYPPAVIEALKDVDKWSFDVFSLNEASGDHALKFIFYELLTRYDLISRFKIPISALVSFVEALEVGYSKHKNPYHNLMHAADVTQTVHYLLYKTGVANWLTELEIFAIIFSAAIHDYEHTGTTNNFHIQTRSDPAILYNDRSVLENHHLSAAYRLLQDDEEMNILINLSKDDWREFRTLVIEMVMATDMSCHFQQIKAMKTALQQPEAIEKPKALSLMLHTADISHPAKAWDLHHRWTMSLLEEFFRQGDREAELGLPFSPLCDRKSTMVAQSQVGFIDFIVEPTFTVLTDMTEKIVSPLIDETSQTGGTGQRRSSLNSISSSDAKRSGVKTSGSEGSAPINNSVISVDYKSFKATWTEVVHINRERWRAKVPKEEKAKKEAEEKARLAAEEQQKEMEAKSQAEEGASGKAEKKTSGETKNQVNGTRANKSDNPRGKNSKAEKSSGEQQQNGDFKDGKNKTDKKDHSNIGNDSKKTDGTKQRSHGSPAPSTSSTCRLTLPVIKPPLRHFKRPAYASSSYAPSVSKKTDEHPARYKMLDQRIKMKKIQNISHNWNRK

With `CCCCCc1ccc(NC(=O)CCCCl)c2c1C(=O)N([C@H](CS(C)(=O)=O)c1ccc(OC)c(OCC)c1)C2=O` [Example 5, (S)-2-[1-(3-ethoxy-4-methoxyphenyl)-2-alkylsulfonylethyl]-4-(γ-chlorobutyramido)-7-pentyl isoindoline-1,3-diketone], the inhibition at 1 µM is 0% on PDE7A; 2.21% on PDE10A1; 8.26% at PDE1C; 0.06% on PDE3B; 0.83% on PDE2A; 0.66% on PDE5A1. The inhibition at 10 µM on PDE7A is 1.94%; at PDE10A1, 5.46%; at PDE1C, 30.8%; on PDE3B, -0.69%; at PDE2A it was 9.01%; on PDE5A1, 8.39%. Also, the pIC50 against PDE4A1 is over 7.00; against PDE4D3 it was 7.30 to 8.00; on PDE4C1, 6.30 to 6.70; at PDE4B2 it was over 7.00.
For the compound `O=C(Nc1c(Cl)cncc1Cl)c1ccc(OC(F)F)c(OCC2CC2)c1` [Roflumilast], the IC50 in the assay with TNF-α (human PBMC, stimulus LPS) is 2.83 nM; in the assay with IL-2 it was 14.7 nM; in the assay with INF-γ (setting [1]), 10.9 nM; with INF-γ (setting [2]), 1.4 nM.
On to `CCCCCc1ccc(NC(=O)CC)c2c1C(=O)N([C@H](CS(C)(=O)=O)c1ccc(OC)c(OCC)c1)C2=O` [Example 13, (S)-2-[1-(3-ethoxy-4-methoxyphenyl)-2-alkylsulfonylethyl]-4-propanamido-7-pentyl isoindoline-1,3-diketone], for which the inhibition at 1 µM at PDE7A was determined as 0%; at PDE10A1, 16.3%; on PDE1C, 5.34%; on PDE3B, 3.31%; on PDE2A it was 0.08%; on PDE5A1, 14.1%. For the same compound, the inhibition at 10 µM is 9.96% at PDE7A; -26.7% at PDE10A1; 51.7% on PDE1C; 0.94% at PDE3B; 13.8% at PDE2A; 20.3% on PDE5A1. For the same compound, the pIC50 against PDE4A1 is 6.70 to 7.00; at PDE4D3, 7.30 to 8.00; against PDE4C1, 6.30 to 6.70; on PDE4B2, 6.70 to 7.00.
For `CCCCCc1ccc(NC(C)=O)c2c1C(=O)N([C@H](CS(C)(=O)=O)c1ccc(OC)c(OCC)c1)C2=O` [Example 9, (S)-2-[1-(3-ethoxy-4-methoxyphenyl)-2-alkylsulfonylethyl]-4-acetamido-7-pentyl isoindoline-1,3-diketone], the inhibition at 1 µM at PDE7A was found to be 20.8%; at PDE10A1, 0%; at PDE1C it was 0.49%; at PDE3B, 5.44%; at PDE2A it was 5.83%; on PDE5A1 it was 1.99%. Further, the inhibition at 10 µM at PDE7A was found to be 44.5%; on PDE10A1, 10.1%; at PDE1C, 30.6%; at PDE3B, 0.81%; on PDE2A, 12.2%; at PDE5A1, 5.74%. In addition, the pIC50 at PDE4A1 was over 7.00; against PDE4D3, over 8.30; at PDE4C1, over 6.70; on PDE4B2, over 7.00. In addition, the IC50 was 0.82 nM in the assay on TNF-α (human PBMC, stimulus LPS); 0.44 nM in the assay with IL-2; 1.82 nM with INF-γ (setting [1]); 0.43 nM with INF-γ (setting [2]).
Turning to `CCOc1cc([C@@H](CS(C)(=O)=O)N2C(=O)c3cccc(NC(C)=O)c3C2=O)ccc1OC` [Example 0, Apremilast, reference compound], the inhibition at 1 µM on PDE7A turned out to be 9.41%; at PDE10A1, 0%; at PDE1C it was 7.77%; at PDE3B, 2.44%; at PDE2A it was 2.95%; at PDE5A1, 3.97%. The inhibition at 10 µM on PDE7A is 11.1%; at PDE10A1 it was -2.75%; on PDE1C, 37.1%; on PDE3B, 1.56%; on PDE2A, 2.35%. For the same compound, the IC50 in the assay with TNF-α (Homo sapiens, PBMC) turned out to be 63.8 nM; in the assay with IL-2, 110 nM; in the assay on INF-γ (Homo sapiens, PBMC, read-out: IC50 (nM), cytokine INF-r, human PBMC, stimulus LPS), 15.4 nM; in the assay on INF-γ (setting [1]) it was 77.8 nM.
